We go through 35 compounds from patent US8524713B2, “Substituted spirocyclic piperidine derivatives as histamine-3 (H3) receptor ligands” (Cephalon, Inc, priority 2008, dated 2013).

Where a name gives a salt, the structure may show the parent alone.

One series concerns the target T1, human H3 receptor (Homo sapiens, UniProt Q9Y5N1).
T1 construct: expressed in transfected cells; membrane preparation
Briefly: Human H3 radioligand binding ([3H]-N-alpha-methylhistamine, SPA). Particulars: membranes of CHO cells expressing human H3 receptor; [3H]-N-alpha-methylhistamine about 1 nM. As for the experimental part:
(§1) Methods: CHO cells stably expressing the human H3 receptor (GenBank: NM_007232) were harvested and cell pellets were frozen (−80° C.). Cell pellets were resuspended in 5 mM Tris-HCl, pH 7.5 with […] and a cocktail of protease inhibitors (Complete Protease Inhibitior Tablets, Roche Diagnostics). Cells were disrupted using a polytron cell homogenizer and the suspension was centrifuged at 1000×g for 10 minutes at 4° C. The pellet was discarded and the supernatant centrifuged at 40,000×g for 30 min at 4° C. This membrane pellet was washed in membrane buffer containing 50 mM Tris-HCl, pH 7.5 with 0.6 mM EDTA, 5 mM MgCl2 and protease inhibitors, recentrifuged as above and the final pellet resuspended in membrane buffer plus 250 mM sucrose and frozen at −80° C.
(§2) Radioligand Binding. Membranes were resuspended in 50 mM Tris HCl (pH 7.4), 5 mM MgCl2, 0.1% BSA. The membrane suspensions (10 μg protein per well) were incubated in a 96 well microtiter plate with [^3H]-N-alpha-methylhistamine (approximately 1 nM final concentration), test compounds at various concentrations (0.01 nM-30 μM) and scintillation proximity beads (Perkin Elmer, FlashBlueGPCR Scintillating Beads) in a final volume of 80 μl for 4 hours at room temperature, protected from light. Non-specific binding was determined in the presence of 10 μM clobenpropit. Radioligand bound to receptor, and therefore in proximity to the scintillation beads, was measured using a MicroBeta scintillation counter.

Series [1] addresses T2, rat histamine H3 receptor (Rattus norvegicus, UniProt Q9QYN8).
T2 construct: encoding the entire 445-amino-acid rat histamine H3 receptor; expressed in transfected cells; membrane preparation
The experiment in a line: Rat H3 radioligand binding ([3H]-N-alpha-methylhistamine, SPA). Particulars: membranes of CHO-A3 cells expressing rat H3 receptor; [3H]-N-alpha-methylhistamine about 1 nM.
From the text: as §1, with “Cell line development and membrane preparation. The rat” for “Methods: CHO cells stably expressing the human”, “cDNA was PCR amplified from reverse-transcribed RNA pooled from rat thalamus, hypothalamus, striatum and prefrontal cortex with a sequence corresponding to by #338-1672 of Genbank file #NM_053506, encoding the entire 445-amino-acid rat histamine H3 receptor. This was engineered into the pIRES-neo3 mammalian expression vector, which was stably transfected into the CHO-A3 cell line (Euroscreen, Belgium), followed by clonal selection by limiting dilution. Cells” for “(GenBank: NM_007232)”
as §2

T2 sequence (Q9QYN8 whole entry): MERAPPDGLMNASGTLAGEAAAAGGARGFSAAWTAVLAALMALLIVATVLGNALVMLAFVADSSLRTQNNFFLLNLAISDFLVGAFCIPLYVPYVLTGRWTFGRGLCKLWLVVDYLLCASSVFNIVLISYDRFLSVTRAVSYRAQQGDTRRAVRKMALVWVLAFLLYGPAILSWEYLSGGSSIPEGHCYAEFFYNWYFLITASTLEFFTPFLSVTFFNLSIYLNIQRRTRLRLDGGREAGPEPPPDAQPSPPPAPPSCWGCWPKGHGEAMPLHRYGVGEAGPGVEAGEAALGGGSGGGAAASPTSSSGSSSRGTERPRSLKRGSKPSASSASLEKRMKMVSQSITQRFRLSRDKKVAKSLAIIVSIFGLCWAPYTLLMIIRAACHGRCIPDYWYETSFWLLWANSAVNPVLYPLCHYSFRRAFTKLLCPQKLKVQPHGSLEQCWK
T1 sequence (Q9Y5N1 whole entry): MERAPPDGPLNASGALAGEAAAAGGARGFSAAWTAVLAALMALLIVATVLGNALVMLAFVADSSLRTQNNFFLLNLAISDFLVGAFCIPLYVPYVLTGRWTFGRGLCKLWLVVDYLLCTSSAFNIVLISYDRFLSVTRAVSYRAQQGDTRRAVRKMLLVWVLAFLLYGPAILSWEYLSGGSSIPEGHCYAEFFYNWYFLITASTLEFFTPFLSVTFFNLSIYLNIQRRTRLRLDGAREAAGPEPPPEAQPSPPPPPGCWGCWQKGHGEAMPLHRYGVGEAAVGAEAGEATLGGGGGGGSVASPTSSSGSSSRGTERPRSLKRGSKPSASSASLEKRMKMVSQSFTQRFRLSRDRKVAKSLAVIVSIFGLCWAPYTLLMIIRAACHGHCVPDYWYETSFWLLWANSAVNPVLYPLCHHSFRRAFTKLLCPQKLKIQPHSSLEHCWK

Compound `O=C1CCC(c2ccc3c(c2)COC2(CCN(C4CCC4)CC2)O3)=NN1` [Example 36] registered a melting point of 192 to 194 °C. The same compound came in with a Ki on human H3 receptor of under 200 nM. The same compound returned a Ki in series [1] of under 200 nM.
`O=C1NN=C(c2ccc3c(c2)CC2(CCN(C4CCC4)CC2)O3)C2CC12` (stereo not drawn) [Example 2, l′-cyclobutyl-5-(3,4-diaza-bicyclo[4.1.0]hepten-2-one-5-yl)-spiro[benzofuran-2(3H),4′-piperidine]] returned a melting point of 189 to 191 °C. The Ki on human H3 receptor is under 200 nM. In addition, the Ki in series [1] is under 200 nM.
As for `O=c1cc(-c2ccc3c(c2)COC2(CCN(C4CCC4)CC2)O3)cn[nH]1` [Example 26], the inhibition constant (Ki) (on human H3 receptor; in series [1]) was under 200 nM throughout.
With `CC1(C)CC(c2ccc3c(c2)COC2(CCN(C4CCC4)CC2)O3)=NNC1=O` [Example 34, 1′-Cyclobutyl-6-[5H-4,4-dimethylpyridazin-3-one)-spiro[1,3-benzodioxine-2,4′-piperidine]], the Ki (at human H3 receptor; in series [1]) was under 200 nM each time.
In turn, `O=C1CCC(c2ccc3c(c2)CC2(CCN(C4CCC4)CC2)O3)=NN1` [Example 1, 6-(1-Cyclobutyl-spiro[benzofuran-2(3H),4′-piperidine]-5-yl)-4,5-dihydro-2H-pyridazin-3-one] came in with a melting point of 207 to 209 °C. This compound also came in with a Ki at human H3 receptor of under 200 nM. The compound further registered a Ki in series [1] of under 200 nM.
Turning to `Cc1c(-c2ccc(=O)[nH]n2)ccc2c1COC1(CCN(C3CCC3)CC1)O2` (as salt: HCl) [Example 31], the melting point is 255 to 257 °C.
On to `Cc1c(-c2ccc(=O)[nH]n2)ccc2c1COC1(CCN(C3CCC3)CC1)O2` [Example 31], for which the Ki (at human H3 receptor; in series [1]) was under 200 nM each time.
Regarding `O=C1NN=C(c2ccc3c(c2)COC2(CCN(C4CCC4)CC2)O3)C2CC12` (stereo not drawn) (as salt: HCl) [Example 37], the melting point is over 300 °C.
The same measure, in the same setting: as for `Cc1cc2c(cc1-c1ccc(=O)n(C)n1)COC1(CCN(C3CCC3)CC1)O2` (as salt: HCl) [Example 30], the figure is 269 to 270 °C.
In the case of `O=C1NN=C(c2ccc3c(c2)CCC2(CCN(C4CCC4)CC2)O3)C2CCC12` (racemic) [Example 10, 1′-Cyclobutyl-6-(3,4-diaza-bicyclo[4.2.0]oct-4-en-2-one-5-yl)-spiro[3,4-dihydrobenzopyran-2,4′-piperidine]], the Ki (on human H3 receptor; in series [1]) was under 200 nM each time.
On to `O=c1ccc(Oc2ccc3c(c2)CCC2(CCN(C4CCC4)CC2)O3)n[nH]1` [Example 18], for which the melting point was 233 to 235 °C. On human H3 receptor, this compound showed a Ki of under 200 nM. In series [1], this compound registered a Ki of under 200 nM.
Turning to `O=c1cccnn1CC(O)COc1ccc2c(c1)CCC1(CCN(C3CCC3)CC1)O2` (stereo not drawn) [Example 25, 1′-Cyclobutyl-6-(3-(2-pyridazin-3-one)-2-hydroxypropyloxy]-spiro[3,4-dihydrobenzopyran-2,4′-piperidine]], the Ki (on human H3 receptor; in series [1]) was under 200 nM in each case.
In turn, `CC(C)N1CCC2(CCc3cc(C4=NNC(=O)C(C)(C)C4)ccc3O2)CC1` [Example 14] showed a melting point of 210 to 213 °C. This compound displayed a Ki at human H3 receptor of under 200 nM. For the same compound, the Ki in series [1] was under 200 nM.
For the compound `Cn1nc(-c2ccc3c(c2)COC2(CCN(C4CCC4)CC2)O3)ccc1=O` [Example 27], the melting point was in the range of 185 to 187 °C. The Ki at human H3 receptor is under 200 nM. The same compound returned a Ki in series [1] of under 200 nM.
For the compound `Cc1c(-c2ccc3c(c2)COC2(CCN(C4CCC4)CC2)O3)n[nH]c(=O)c1C` (as salt: HCl) [Example 41], the melting point was over 300 °C.
For `O=C1NN=C(c2ccc3c(c2)COC2(CCN(C4CCC4)CC2)O3)C2CC12` (stereo not drawn) [Example 37], the Ki (at human H3 receptor; in series [1]) was under 200 nM each time.
For the compound `CC1(C)CC(c2ccc3c(c2)CCC2(CCN(C4CCC4)CC2)O3)=NNC1=O` [Example 11, 1′-Cyclobutyl-6-(4,4-dimethyl-4,5-dihydro-2H-pyridazin-3-one-6-yl)-spiro[3,4-dihydrobenzopyran-2,4′-piperidine]], the Ki (on human H3 receptor; in series [1]) was under 200 nM in each case.
Regarding `O=C1NN=C(c2ccc3c(c2)CCC2(CCNCC2)O3)C2CC12` (stereo not drawn) [Example 6, 6-(3,4-diaza-bicyclo[4.1.0]hept-4-en-2-one-5-yl)-spiro[3,4-dihydrobenzopyran-2,4′-piperidine]], the Ki (on human H3 receptor; in series [1]) was over 1000 nM throughout.
As to `Cc1cc(=O)[nH]nc1-c1ccc2c(c1)COC1(CCN(C3CCC3)CC1)O2` [Example 40], the Ki (on human H3 receptor; in series [1]) was under 200 nM in each case.
As for `O=C1NN=C(c2ccc3c(c2)CCC2(CCN(C4CCC4)CC2)O3)C2CCC12` (single isomer, unassigned) [Example 23], the Ki (at human H3 receptor; in series [1]) was under 200 nM in each case.
`O=c1cc(-c2ccc3c(c2)COC2(CCN(C4CCC4)CC2)O3)cn[nH]1` (as salt: HCl) [Example 26] gave a melting point of 258 to 262 °C.
`O=C1NN=C(c2ccc3c(c2)CCC2(CCN(C4CCC4)CC2)O3)C2CC12` (stereo not drawn) [Example 7, 1′-Cyclobutyl-6-(3,4-diaza-bicyclo[4.1.0]hept-4-en-2-one-5-yl)-spiro[3,4-dihydrobenzopyran-2,4′-piperidine]]: the Ki (at human H3 receptor; in series [1]) was under 200 nM throughout.
Compound `O=c1cccnn1CC(O)COc1ccc2c(c1)CCC1(CCN(C3CCC3)CC1)O2` (stereo not drawn) (as salt: HCl) [Example 25, 1′-Cyclobutyl-6-(3-(2-pyridazin-3-one)-2-hydroxypropyloxy]-spiro[3,4-dihydrobenzopyran-2,4′-piperidine]] showed a melting point of 201 to 203 °C.
Consider `O=c1cccnn1CCCOc1ccc2c(c1)CCC1(CCN(C3CCC3)CC1)O2` [Example 24, 1′-Cyclobutyl-6-(3-(2-pyridazin-3-one)propyloxy]-spiro[3,4-dihydrobenzopyran-2,4′-piperidine]], for which the Ki (on human H3 receptor; in series [1]) was under 200 nM each time.
On to `Cc1c(-c2ccc3c(c2)COC2(CCN(C4CCC4)CC2)O3)n[nH]c(=O)c1C` [Example 41], for which the Ki (at human H3 receptor; in series [1]) was under 200 nM each time.
`O=c1cccnn1CCCOc1ccc2c(c1)CCC1(CCN(C3CCC3)CC1)O2` (as salt: HCl) [Example 24, 1′-Cyclobutyl-6-(3-(2-pyridazin-3-one)propyloxy]-spiro[3,4-dihydrobenzopyran-2,4′-piperidine]] displayed a melting point of 207 to 209 °C.
For `O=C1NN=C(c2ccc3c(c2)CCC2(CCN(C4CCC4)CC2)O3)C2CCC12` (single isomer, unassigned) [Example 22], the Ki (at human H3 receptor; in series [1]) was under 200 nM throughout.
Take `CC(C)N1CCC2(CCc3cc(C4=NNC(=O)C5CC45)ccc3O2)CC1` (stereo not drawn) [Example 9]: the Ki (on human H3 receptor; in series [1]) was under 200 nM each time.
Regarding `Cc1cc(=O)[nH]nc1-c1ccc2c(c1)COC1(CCN(C3CCC3)CC1)O2` (as salt: HCl) [Example 40], the melting point is 265 to 267 °C.
For the compound `Cc1cc2c(cc1-c1ccc(=O)n(C)n1)COC1(CCN(C3CCC3)CC1)O2` [Example 30], the Ki (on human H3 receptor; in series [1]) was under 200 nM in each case.
The compound `O=C1NN=C(c2ccc3c(c2)COC2(CCN(C4CCC4)CC2)O3)C2CCC12` (stereo not drawn) (as salt: HCl) [Example 38] gave a melting point of 271 to 274 °C.
Consider `O=C1NN=C(c2ccc3c(c2)COC2(CCN(C4CCC4)CC2)O3)C2CCC12` (stereo not drawn) [Example 38], for which the Ki (on human H3 receptor; in series [1]) was under 200 nM in each case.
On to `CC1CC(=O)NN=C1c1ccc2c(c1)COC1(CCN(C3CCC3)CC1)O2` (stereo not drawn) (as salt: HCl) [Example 39], for which the melting point lay in the range of 209 to 214 °C.
`CC1CC(=O)NN=C1c1ccc2c(c1)COC1(CCN(C3CCC3)CC1)O2` (stereo not drawn) [Example 39]: the Ki (on human H3 receptor; in series [1]) was under 200 nM throughout.
As to `O=C1NN=C(c2ccc3c(c2)CCC2(CCN(C4CCCC4)CC2)O3)C2CC12` (stereo not drawn) [Example 8, 1′-Cyclopentyl-6-(3,4-diaza-bicyclo[4.1.0]hept-4-en-2-one-5-yl)-spiro[3,4-dihydrobenzopyran-2,4′-piperidine]], the Ki (on human H3 receptor; in series [1]) was under 200 nM each time.
